The text below walks through data of PubChem BioAssay AID252 (DTP/NCI, 2004).

Values joined by “and” are separate entries in the source; they are usually repeats but may differ in a detail not shown here. Equal values may be shown once. Toxic doses and inconclusive results are not listed.

The test system of the assay is BDF1 mice, intracerebral L1210 leukemia, survival T/C. In words: NCI In Vivo Anticancer Drug Screen. Data for tumor model L1210 Leukemia (intracerebral) in B6D2F1 (BDF1) mice. Conditions: higher = longer survival. Summed up:
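Mice carrying transplanted tumour were dosed with compound; survival was recorded and expressed as treated-group value (T) divided by vehicle-control value (C).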

In the case of `CC1CCC(NC(=O)N(CCCl)N=O)CC1` (centres undefined), the T/C runs as follows: (endpoint: mean survival time, dose: 2.0 mg/kg/injection, schedule: Q01DX001 (ip), vehicle: clinical formulation) 100 % of control; (endpoint: mean survival time, dose: 2.0 mg/kg/injection, schedule: Q01DX009 (ip), vehicle: other) 117 % of control; (endpoint: mean survival time, dose: 3.13 mg/kg/injection, schedule: Q01DX009 (ip), vehicle: Klucel (hydroxypropylcellulose) (HPC)) 112 % of control; (endpoint: mean survival time, dose: 4.0 mg/kg/injection, schedule: Q01DX001 (ip), vehicle: clinical formulation) 105 % of control; (endpoint: mean survival time, dose: 4.0 mg/kg/injection, schedule: Q01DX001 (ip), vehicle: saline) 103 % of control; (endpoint: mean survival time, dose: 4.3 mg/kg/injection, schedule: Q01DX001 (ip), vehicle: other) 104 % of control and 107 % of control. Further, the T/C is 115 % of control (endpoint: mean survival time, dose: 5.0 mg/kg/injection, schedule: Q01DX001 (ip), vehicle: other); 161 % of control (endpoint: mean survival time, dose: 5.0 mg/kg/injection, schedule: Q01DX009 (ip), vehicle: saline); 110 % of control (endpoint: mean survival time, dose: 5.4 mg/kg/injection, schedule: Q01DX001 (oral), vehicle: other); 112 % of control (endpoint: mean survival time, dose: 8.0 mg/kg/injection, schedule: Q01DX001 (ip), vehicle: Klucel (hydroxypropylcellulose) (HPC)); 115 % of control (endpoint: mean survival time, dose: 8.0 mg/kg/injection, schedule: Q01DX001 (ip), vehicle: clinical formulation); 118 % of control (endpoint: mean survival time, dose: 8.0 mg/kg/injection, schedule: Q01DX001 (ip), vehicle: saline). Further, the T/C by setting is: (endpoint: mean survival time, dose: 8.0 mg/kg/injection, schedule: Q01DX009 (ip), vehicle: other) 183 % of control; (endpoint: mean survival time, dose: 9.0 mg/kg/injection, schedule: Q01DX001 (ip), vehicle: other) 110 % of control and 112 % of control; (endpoint: mean survival time, dose: 10.0 mg/kg/injection, schedule: Q01DX009 (ip), vehicle: saline) 151 % of control; (endpoint: mean survival time, dose: 12.5 mg/kg/injection, schedule: Q01DX009 (ip), vehicle: Klucel (hydroxypropylcellulose) (HPC)) 161 % of control; (endpoint: mean survival time, dose: 16.0 mg/kg/injection, schedule: Q01DX001 (ip), vehicle: saline) 153 % of control; (endpoint: mean survival time, dose: 16.0 mg/kg/injection, schedule: Q01DX009 (ip), vehicle: other) 113 % of control. Also, the T/C is, setting by setting: (endpoint: mean survival time, dose: 20.0 mg/kg/injection, schedule: Q01DX001 (ip), vehicle: other) 188 % of control; (endpoint: mean survival time, dose: 20.0 mg/kg/injection, schedule: Q01DX009 (ip), vehicle: saline) 98 % of control; (endpoint: mean survival time, dose: 24.0 mg/kg/injection, schedule: Q01DX001 (ip), vehicle: other) 175 % of control and 185 % of control; (endpoint: mean survival time, dose: 25.0 mg/kg/injection, schedule: Q01DX009 (ip), vehicle: Klucel (hydroxypropylcellulose) (HPC)) 109 % of control; (endpoint: mean survival time, dose: 30.0 mg/kg/injection, schedule: Q01DX001 (ip), vehicle: other) 187 % of control and 198 % of control; (endpoint: mean survival time, dose: 32.0 mg/kg/injection, schedule: Q01DX001 (ip), vehicle: clinical formulation) 160 % of control. For the same molecule, the T/C is 102 % of control (endpoint: mean survival time, dose: 32.0 mg/kg/injection, schedule: Q01DX001 (oral), vehicle: clinical formulation); 238 % of control and 243 % of control and 292 % of control (endpoint: mean survival time, dose: 36.0 mg/kg/injection, schedule: Q01DX001 (oral), vehicle: other); 280 % of control (endpoint: mean survival time, dose: 40.0 mg/kg/injection, schedule: Q01DX001 (ip), vehicle: other); 225 % of control and 251 % of control (endpoint: mean survival time, dose: 45.0 mg/kg/injection, schedule: Q01DX001 (ip), vehicle: other); 306 % of control and 362 % of control (endpoint: mean survival time, dose: 45.0 mg/kg/injection, schedule: Q01DX001 (oral), vehicle: other); 189 % of control and 248 % of control and 357 % of control (endpoint: mean survival time, dose: 54.0 mg/kg/injection, schedule: Q01DX001 (oral), vehicle: other). In addition, the T/C reads like this: (endpoint: mean survival time, dose: 67.0 mg/kg/injection, schedule: Q01DX001 (ip), vehicle: other) 168 % of control; (endpoint: mean survival time, dose: 72.0 mg/kg/injection, schedule: Q01DX001 (ip), vehicle: other) 209 % of control and 306 % of control; (endpoint: mean survival time, dose: 90.0 mg/kg/injection, schedule: Q01DX001 (oral), vehicle: other) 91 % of control; (endpoint: mean survival time, dose: 91.0 mg/kg/injection, schedule: Q01DX001 (oral), vehicle: other) 114 % of control; (endpoint: mean survival time, dose: 128.0 mg/kg/injection, schedule: Q01DX001 (ip), vehicle: Klucel (hydroxypropylcellulose) (HPC)) 109 % of control; (endpoint: mean survival time, dose: 128.0 mg/kg/injection, schedule: Q01DX001 (ip), vehicle: clinical formulation) 103 % of control. The T/C runs as follows: (endpoint: mean survival time, dose: 128.0 mg/kg/injection, schedule: Q01DX001 (ip), vehicle: saline) 103 % of control; (endpoint: mean survival time, dose: 256.0 mg/kg/injection, schedule: Q01DX001 (ip), vehicle: Klucel (hydroxypropylcellulose) (HPC)) 111 % of control; (endpoint: mean survival time, dose: 256.0 mg/kg/injection, schedule: Q01DX001 (oral), vehicle: clinical formulation) 112 % of control; (endpoint: median survival time, dose: 2.0 mg/kg/injection, schedule: Q01DX001 (ip), vehicle: clinical formulation) 106 % of control; (endpoint: median survival time, dose: 2.0 mg/kg/injection, schedule: Q01DX001 (ip), vehicle: saline) 106 % of control; (endpoint: median survival time, dose: 4.0 mg/kg/injection, schedule: Q01DX001 (ip), vehicle: clinical formulation) 113 % of control. Moreover, the T/C was 115 % of control (endpoint: median survival time, dose: 4.0 mg/kg/injection, schedule: Q01DX001 (ip), vehicle: saline); 122 % of control (endpoint: median survival time, dose: 8.0 mg/kg/injection, schedule: Q01DX001 (ip), vehicle: clinical formulation); 178 % of control (endpoint: median survival time, dose: 16.0 mg/kg/injection, schedule: Q01DX001 (ip), vehicle: saline); 175 % of control (endpoint: median survival time, dose: 32.0 mg/kg/injection, schedule: Q01DX001 (ip), vehicle: clinical formulation); 159 % of control (endpoint: median survival time, dose: 32.0 mg/kg/injection, schedule: Q01DX001 (ip), vehicle: saline); 108 % of control (endpoint: median survival time, dose: 32.0 mg/kg/injection, schedule: Q01DX001 (oral), vehicle: clinical formulation). In addition, the T/C is, setting by setting: (endpoint: median survival time, dose: 64.0 mg/kg/injection, schedule: Q01DX001 (oral), vehicle: clinical formulation) 150 % of control; (endpoint: median survival time, dose: 128.0 mg/kg/injection, schedule: Q01DX001 (ip), vehicle: clinical formulation) 110 % of control; (endpoint: median survival time, dose: 128.0 mg/kg/injection, schedule: Q01DX001 (ip), vehicle: saline) 117 % of control; (endpoint: median survival time, dose: 256.0 mg/kg/injection, schedule: Q01DX001 (ip), vehicle: clinical formulation) 103 % of control; (endpoint: median survival time, dose: 256.0 mg/kg/injection, schedule: Q01DX001 (ip), vehicle: saline) 102 % of control; (endpoint: median survival time, dose: 256.0 mg/kg/injection, schedule: Q01DX001 (oral), vehicle: clinical formulation) 118 % of control. The T/C was 98 % of control (endpoint: median survival time, dose: 512.0 mg/kg/injection, schedule: Q01DX001 (oral), vehicle: clinical formulation) and 83 % of control (endpoint: median survival time, dose: 1024.0 mg/kg/injection, schedule: Q01DX001 (oral), vehicle: clinical formulation).

With `S=P(N1CC1)(N1CC1)N1CC1`, the T/C by setting is: (endpoint: mean survival time, dose: 10.0 mg/kg/injection, schedule: Q01DX001 (ip), vehicle: saline) 154 % of control; (endpoint: mean survival time, dose: 15.0 mg/kg/injection, schedule: Q01DX001 (ip), vehicle: saline) 228 % of control.

On to `CCOC(=O)C(CC(C)C)NC(=O)C(Cc1ccc(N(CCCl)CCCl)cc1)NC(C)=O` (centres undefined), for which the T/C runs as follows: (endpoint: mean survival time, dose: 2.0 mg/kg/injection, schedule: Q01DX009 (ip), vehicle: DMSO) 90 % of control; (endpoint: mean survival time, dose: 4.0 mg/kg/injection, schedule: Q01DX009 (ip), vehicle: DMSO) 92 % of control.

`CCCCCCCCSc1ncnc2c1ncn2CC`: the T/C runs as follows: (endpoint: mean survival time, dose: 62.0 mg/kg/injection, schedule: Q01DX015 (ip), vehicle: carboxymethylcellulose (CMC)) 97 % of control; (endpoint: mean survival time, dose: 125.0 mg/kg/injection, schedule: Q01DX015 (ip), vehicle: carboxymethylcellulose (CMC)) 103 % of control; (endpoint: mean survival time, dose: 250.0 mg/kg/injection, schedule: Q01DX015 (ip), vehicle: carboxymethylcellulose (CMC)) 116 % of control; (endpoint: mean survival time, dose: 500.0 mg/kg/injection, schedule: Q01DX015 (ip), vehicle: carboxymethylcellulose (CMC)) 94 % of control.
